The text below walks through data of US8017611B2, “Pyridine and pyrazine derivatives -083” (AstraZeneca AB, priority 2007, dated 2011).

Structures are written as SMILES. Marks after values point to notes of the source that are not given here.

One assay has as its target T1, recombinant Axl tyrosine kinase (Homo sapiens, UniProt P30530).
T1 construct: encompassing amino acids 473 to 894 of Axl; GST (N); made in house; host or cells: SF126 insect cells
T1 sequence (P30530 473-894): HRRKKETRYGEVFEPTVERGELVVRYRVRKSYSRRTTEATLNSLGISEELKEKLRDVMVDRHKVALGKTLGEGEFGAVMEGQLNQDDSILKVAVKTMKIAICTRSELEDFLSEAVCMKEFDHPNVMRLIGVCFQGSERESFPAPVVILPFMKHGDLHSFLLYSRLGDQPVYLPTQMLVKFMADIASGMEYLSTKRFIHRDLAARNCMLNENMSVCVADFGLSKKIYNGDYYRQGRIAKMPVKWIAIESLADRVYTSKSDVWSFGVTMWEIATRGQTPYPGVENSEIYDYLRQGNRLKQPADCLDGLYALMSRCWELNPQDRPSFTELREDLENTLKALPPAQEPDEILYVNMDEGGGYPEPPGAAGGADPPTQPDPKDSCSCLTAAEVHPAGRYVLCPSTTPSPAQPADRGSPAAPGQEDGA
The experiment in a line: In vitro Axl kinase assay (AlphaScreen), Test (a). In kind it is biochemical. The note with it: 1 μM; mean calculated from a larger number of replicates than the first value. The procedure: Test compounds were prepared as 10 mM stock solutions in dimethylsulphoxide (DMSO) and diluted in DMSO as required. Aliquots (120 nl) of compound dilutions were filled into the wells of a Greiner 384-well low volume (LV) white polystyrene plate (Greiner Bio-one) using acoustic dispensing (Labcyte Echo 550). A 10 μl mixture of recombinant purified Axl enzyme, biotinylated peptide substrate (Biotin poly-GAT; CisBio, Catalogue No. 61GATBLB), 0.2 μM adenosine triphosphate (ATP) and a buffer solution [comprising 20 mM Tris-HCl pH 7.5 buffer, 0.01% v/v Tween, 5 mM dithiothreitol (DTT) and 10 mM manganese chloride] was incubated with the compounds at room temperature for 20 minutes.
Control wells that produced a minimum signal corresponding to 100% inhibited enzyme were created by adding 10 μM of Staurosporine.
The percentage kinase inhibition value is the percentage of Axl tyrosine kinase activity inhibited by the test compound at a concentration of 1 μM.
As to `Nc1ncc(-c2cccc(N3CCOCC3)c2)cc1-c1nc2ccccc2o1` [Example 2.49], the “% Axl tyrosine kinase inhibition at 1 μM concentration (second value, †)” value is listed as 94.5%.

For `Nc1ncc(-c2cccc(N3CCOCC3)c2)cc1-c1nc2cnccc2o1` [Example 8A.4], the “% Axl tyrosine kinase inhibition at 1 μM concentration (second value, †)” value is 86.6%.

Still in this assay, the particulars now being: 1 μM; mean calculated from a larger number of replicates than the first value; read-out: % Axl tyrosine kinase inhibition at 1 μM concentration (second value, †).
As to `CN1CCC(n2cc(-c3cnc(N)c(-c4nc5ccccc5o4)c3)cn2)CC1` [Example 3, 3-(1,3-Benzoxazol-2-yl)-5-[1-(1-methyl-4-piperidyl)pyrazol-4-yl]pyridin-2-amine], the inhibition at 1 µM is 99.8%.

Staying with this assay, now noted: test compound at 1 μM; first value quoted.
Regarding `CN(C)CCCOc1ccc(-c2cnc(N)c(-c3nc4ccccc4o3)c2)cn1` [Example 2.26], the “% Axl tyrosine kinase inhibition at 1 μM concentration” value is recorded as 99.5%. With `CS(=O)(=O)Nc1ccc(-c2cnc(N)c(-c3nc4ccccc4o3)c2)cc1` [Example 2.27], the “% Axl tyrosine kinase inhibition at 1 μM concentration” value is 98.0%. With `CN(C)S(=O)(=O)c1ccc(-c2cnc(N)c(-c3nc4ccccc4o3)c2)cc1` [Example 2.28], the “% Axl tyrosine kinase inhibition at 1 μM concentration” value worked out at 85.1%. Consider `Nc1ncc(-c2ccc3[nH]ccc3c2)cc1-c1nc2ccccc2o1` [Example 2.29], for which the “% Axl tyrosine kinase inhibition at 1 μM concentration” value was found to be 31.3%. `Nc1ncc(-c2ccc(S(=O)(=O)NC3CC3)cc2)cc1-c1nc2ccccc2o1` [Example 2.30]: the “% Axl tyrosine kinase inhibition at 1 μM concentration” value is given as 96.1%. As for `Nc1ncc(-c2cccc(N3CCCC3)c2)cc1-c1nc2ccccc2o1` [Example 2.32], the “% Axl tyrosine kinase inhibition at 1 μM concentration” value is listed as 22.4%. Take `NC(=O)c1cccc(-c2cnc(N)c(-c3nc4ccccc4o3)c2)c1` [Example 2.34]: the “% Axl tyrosine kinase inhibition at 1 μM concentration” value was found to be 67.3%. Regarding `Nc1ncc(-c2cccc(CO)c2)cc1-c1nc2ccccc2o1` [Example 2.35], the “% Axl tyrosine kinase inhibition at 1 μM concentration” value is given as 93.3%. As to `COCc1ccccc1-c1cnc(N)c(-c2nc3ccccc3o2)c1` [Example 2.36], the “% Axl tyrosine kinase inhibition at 1 μM concentration” value is given as 98.5%.

As to `COCc1ccc(-c2cnc(N)c(-c3nc4ccccc4o3)c2)cc1` [Example 2.37], the “% Axl tyrosine kinase inhibition at 1 μM concentration” value is recorded as 91.9%. Consider `COc1cc(N2CCNCC2)ccc1-c1cnc(N)c(-c2nc3ccccc3o2)c1` [Example 2.38], for which the “% Axl tyrosine kinase inhibition at 1 μM concentration” value is given as 99.0%.

On to `CN(C)S(=O)(=O)c1cccc(-c2cnc(N)c(-c3nc4ccccc4o3)c2)c1` [Example 2.39], for which the “% Axl tyrosine kinase inhibition at 1 μM concentration” value is 17.1* %.

On to `N#Cc1cccc(-c2cnc(N)c(-c3nc4ccccc4o3)c2)c1` [Example 2.40], for which the “% Axl tyrosine kinase inhibition at 1 μM concentration” value is given as 40.7%. For the molecule `CN(C)CCNC(=O)c1ccc(-c2cnc(N)c(-c3nc4ccccc4o3)c2)cc1` [Example 2.41], the “% Axl tyrosine kinase inhibition at 1 μM concentration” value was determined as 99.9%. Consider `Nc1ncc(-c2ccc3c(c2)OCO3)cc1-c1nc2ccccc2o1` [Example 2.42], for which the “% Axl tyrosine kinase inhibition at 1 μM concentration” value is given as 15.8** %. Same read-out and setting: the result for `Nc1ncc(-c2cccc3ccccc23)cc1-c1nc2ccccc2o1` [Example 2.43] reads 9.8*** %. For the molecule `N#Cc1ccc(-c2cnc(N)c(-c3nc4ccccc4o3)c2)cc1` [Example 2.44], the “% Axl tyrosine kinase inhibition at 1 μM concentration” value is on record as 25.0%. On to `Nc1ncc(-c2cccc(N3CCCCC3)c2)cc1-c1nc2ccccc2o1` [Example 2.46], for which the “% Axl tyrosine kinase inhibition at 1 μM concentration” value is 46.4%.

Regarding `N#CCc1cccc(-c2cnc(N)c(-c3nc4ccccc4o3)c2)c1` [Example 2.47], the “% Axl tyrosine kinase inhibition at 1 μM concentration” value is on record as 98.0%. `CS(=O)(=O)c1cccc(-c2cnc(N)c(-c3nc4ccccc4o3)c2)c1` [Example 2.48]: the “% Axl tyrosine kinase inhibition at 1 μM concentration” value stood at 97.1%.

Regarding `Nc1ncc(-c2cccc(N3CCOCC3)c2)cc1-c1nc2ccccc2o1` [Example 2.49], the “% Axl tyrosine kinase inhibition at 1 μM concentration” value turned out to be 93.6%. Turning to `CN(C)c1cccc(-c2cnc(N)c(-c3nc4ccccc4o3)c2)c1` [Example 2.50], the “% Axl tyrosine kinase inhibition at 1 μM concentration” value was found to be 90.0%. Regarding `N#CCc1ccc(-c2cnc(N)c(-c3nc4ccccc4o3)c2)cc1` [Example 2.51], the “% Axl tyrosine kinase inhibition at 1 μM concentration” value is reported as 93.1%. In the case of `CS(=O)(=O)Oc1cccc(-c2cnc(N)c(-c3nc4ccccc4o3)c2)c1` [Example 2.52], the “% Axl tyrosine kinase inhibition at 1 μM concentration” value was determined as 81.0%. As to `CN1CCN(c2cccc(-c3cnc(N)c(-c4nc5ccccc5o4)c3)c2)CC1` [Example 2.53], the “% Axl tyrosine kinase inhibition at 1 μM concentration” value is recorded as 4.2**** %.

With `CN1CCN(c2ccc(-c3cnc(N)c(-c4nc5ccccc5o4)c3)cn2)CC1` [Example 2.54], the “% Axl tyrosine kinase inhibition at 1 μM concentration” value came out at 99.8%. As to `CCN1CCC(n2cc(-c3cnc(N)c(-c4nc5ccccc5o4)c3)cn2)CC1` [Example 4.1], the “% Axl tyrosine kinase inhibition at 1 μM concentration” value came out at 100.0%. Still for that read-out and setting: as for `CN1CCC(n2cc(-c3cnc(N)c(-c4nc5cc(F)ccc5o4)c3)cn2)CC1` [Example 7.1], the figure is 99.9%. Consider `CC(C)c1ccc2nc(-c3cc(-c4cnn(C5CCN(C)CC5)c4)cnc3N)oc2c1` [Example 7.4], for which the “% Axl tyrosine kinase inhibition at 1 μM concentration” value is 99.6%.

In the case of `CN1CCC(n2cc(-c3cnc(N)c(-c4nc5cc(Br)ccc5o4)c3)cn2)CC1` [Example 7.5], the “% Axl tyrosine kinase inhibition at 1 μM concentration” value was determined as 99.1%.

Take `CN1CCC(n2cc(-c3cnc(N)c(-c4nc5c(F)cc(F)cc5o4)c3)cn2)CC1` [Example 7.6]: the “% Axl tyrosine kinase inhibition at 1 μM concentration” value was 99.9%. In the case of `CN1CCC(n2cc(-c3cnc(N)c(-c4nc5ccc(Cl)cc5o4)c3)cn2)CC1` [Example 7.7], the “% Axl tyrosine kinase inhibition at 1 μM concentration” value amounted to 99.0%.

On to `Cc1ccc2nc(-c3cc(-c4cnn(C5CCN(C)CC5)c4)cnc3N)oc2c1` [Example 7.9], for which the “% Axl tyrosine kinase inhibition at 1 μM concentration” value was determined as 99.7%.

Turning to `CN1CCC(n2cc(-c3cnc(N)c(-c4nc5ccc(OC(F)(F)F)cc5o4)c3)cn2)CC1` [Example 7.10], the “% Axl tyrosine kinase inhibition at 1 μM concentration” value is given as 95.7%.

Consider `CN1CCC(n2cc(-c3cnc(N)c(-c4nc5cc(C(F)(F)F)ccc5o4)c3)cn2)CC1` [Example 7.11], for which the “% Axl tyrosine kinase inhibition at 1 μM concentration” value came to 98.1%. Turning to `Nc1ncc(-c2cccc(CN3CCCC3)c2)cc1-c1nc2cnccc2o1` [Example 8A.1], the “% Axl tyrosine kinase inhibition at 1 μM concentration” value is 95.6%.

For `Nc1ncc(-c2ccc(S(=O)(=O)NCCO)cc2)cc1-c1nc2cnccc2o1` [Example 8A.2], the “% Axl tyrosine kinase inhibition at 1 μM concentration” value was 99.2%. Turning to `Nc1ncc(-c2cccc(N3CCOCC3)c2)cc1-c1nc2cnccc2o1` [Example 8A.4], the “% Axl tyrosine kinase inhibition at 1 μM concentration” value was 89.8%.

In the case of `Nc1ncc(-c2ccc(CO)s2)cc1-c1nc2cnccc2o1` [Example 8A.5], the “% Axl tyrosine kinase inhibition at 1 μM concentration” value amounted to 96.8%. Consider `CNS(=O)(=O)c1cccc(-c2cnc(N)c(-c3nc4cnccc4o3)c2)c1` [Example 8A.6], for which the “% Axl tyrosine kinase inhibition at 1 μM concentration” value came out at 97.7%.

The same assay, now with this note: test compound at 1 μM; first value quoted; read-out: % Axl tyrosine kinase inhibition at 1 μM concentration.
As to `Nc1ncc(-c2cnn(C3CCCCO3)c2)cc1-c1nc2ccccc2o1` (centres unmarked) [Example 2.55, 3-(1,3-benzoxazol-2-yl)-5-(1-tetrahydropyran-2-ylpyrazol-4-yl)pyridin-2-amine], the inhibition at 1 µM amounted to 99.2%. Take `CN1CCC(n2cc(-c3cnc(N)c(-c4nc5ccccc5o4)c3)cn2)CC1` [Example 3, 3-(1,3-Benzoxazol-2-yl)-5-[1-(1-methyl-4-piperidyl)pyrazol-4-yl]pyridin-2-amine]: the inhibition at 1 µM stood at 100%. As for `CC(C)N1CCC(n2cc(-c3cnc(N)c(-c4nc5ccccc5o4)c3)cn2)CC1` [Example 5, 3-(1,3-Benzoxazol-2-yl)-5-[1-(1-isopropyl-4-piperidyl)pyrazol-4-yl]pyridin-2-amine], the inhibition at 1 µM was 100%. On the same count and under the same terms, as for `CN1CCC(n2cc(-c3cnc(N)c(-c4nc5c(F)cccc5o4)c3)cn2)CC1` [Example 6, 3-(4-Fluoro-1,3-benzoxazol-2-yl)-5-[1-(1-methyl-4-piperidyl)pyrazol-4-yl]pyridin-2-amine], the figure is 99.9%. Take `Nc1ncc(-c2cnn(C3CCNCC3)c2)cc1-c1nc2cnccc2o1` [Example 8, 3-Oxazolo[4,5-c]pyridin-2-yl-5-[1-(4-piperidyl)pyrazol-4-yl]pyridin-2-amine]: the inhibition at 1 µM stood at 99.2%.

Staying with this assay, now noted: test compound at 30 μM.
`CN(C)S(=O)(=O)c1cccc(-c2cnc(N)c(-c3nc4ccccc4o3)c2)c1` [Example 2.39]: the “% of Axl tyrosine kinase activity inhibited at a concentration of 30 μM” value was “*the compound disclosed in Example 2.39 inhibited 58.6% of Axl tyrosine kinase activity at a concentration of 30 μM”. Still for that read-out and setting: as for `Nc1ncc(-c2ccc3c(c2)OCO3)cc1-c1nc2ccccc2o1` [Example 2.42], the entry is “**the compound disclosed in Example 2.42 inhibited 53.6% of Axl tyrosine kinase activity at a concentration of 30 μM”; as for `Nc1ncc(-c2cccc3ccccc23)cc1-c1nc2ccccc2o1` [Example 2.43], “***the compound disclosed in Example 2.43 inhibited 57% of Axl tyrosine kinase activity at a concentration of 30 μM”; as for `CN1CCN(c2cccc(-c3cnc(N)c(-c4nc5ccccc5o4)c3)c2)CC1` [Example 2.53], “****the compound disclosed in Example 2.53 inhibited 82% of Axl tyrosine kinase activity at a concentration of 30 μM”. On the same count and under the same terms, as for `CS(=O)(=O)c1cccc(-c2cnc(N)c(-c3nc4cnccc4o3)c2)c1` [Example 8A.3], the entry is “^###the compound disclosed in Example 8A.3 inhibited 100% of Axl tyrosine kinase activity at a concentration of 30 μM”.
